Results on five molecules are retold here after paper PMC11705451 (FEBS Open Bio, 2024).

In test [1] the target is T1, hS1P4 (ProLink-tagged, PathHunter) (Homo sapiens, UniProt O95977).
T1 construct: gene S1PR4; ProLink-tagged receptor, PathHunter HEK293 cells
T1 sequence (O95977 1-384): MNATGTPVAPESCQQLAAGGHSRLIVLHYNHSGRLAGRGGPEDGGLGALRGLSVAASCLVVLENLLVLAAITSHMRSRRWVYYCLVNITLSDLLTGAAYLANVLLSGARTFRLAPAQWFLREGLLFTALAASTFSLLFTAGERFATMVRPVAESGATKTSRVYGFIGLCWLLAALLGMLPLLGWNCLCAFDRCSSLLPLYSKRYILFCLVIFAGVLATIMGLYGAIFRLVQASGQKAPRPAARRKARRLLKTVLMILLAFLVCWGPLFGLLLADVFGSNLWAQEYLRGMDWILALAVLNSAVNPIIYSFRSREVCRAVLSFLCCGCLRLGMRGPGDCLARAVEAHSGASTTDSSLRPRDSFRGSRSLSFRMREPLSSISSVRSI
As to the kind of experiment: cell-based. Also on record: species or system PathHunter HEK293; PathHunter beta-arrestin recruitment, agonist concentration-response. The note with it: HEK293, read-out: S1P4 β-Arrestin Emax, % of S1P. The text has this:
(§1) We extended our pharmacological analysis of etrasimod and the other test compounds on S1P2–5. […] All tested compounds were agonists of S1P5, inducing both G protein signaling and β‐arrestin recruitment (Table S2).

Test [2] deals with T2, hS1P5 (ProLink-tagged, PathHunter) (Homo sapiens, UniProt Q9H228).
T2 construct: gene S1PR5; ProLink-tagged receptor, PathHunter HEK293 cells
Kind of test: cell-based. More on the design: species or system PathHunter HEK293; PathHunter beta-arrestin recruitment, agonist concentration-response. The note with it: HEK293, read-out: S1P5 β-Arrestin Emax, % of S1P.
Description: as §1

In test [3] the target is T1, hS1P4 (ProLink-tagged, PathHunter). Kind of test: PathHunter beta-arrestin recruitment. The class given is cell-based.
Test [4] concerns the target T3, hS1P4 (Homo sapiens, UniProt O95977).
T3 construct: gene S1PR4; receptor stably expressed in CHO-K1 cells
T3 sequence (O95977 1-384): T1 sequence (O95977 1-384)
As to the kind of experiment: […]GTPgammaS binding, CHO-K1 membranes. Type of test: biochemical.

In test [5] the target is T3, hS1P4. As to the kind of experiment: biochemical. The class given is CHO-K1 membranes. More on the design: [35S]GTPgammaS binding to membranes, agonist concentration-response. The note with it: read-out: S1P4 GTPγS Emax, % of S1P. From the text:
(§2) All tested compounds were agonists of S1P5, inducing both G protein signaling and β‐arrestin recruitment (Table S2).

Test [6] has as its target T4, hS1P5 (Homo sapiens, UniProt Q9H228).
T4 construct: gene S1PR5; receptor stably expressed in CHO-K1 cells
As to the kind of experiment: biochemical. The class given is CHO-K1 membranes. Also on record: [35S]GTPgammaS binding to membranes, agonist concentration-response. As to conditions: read-out: S1P5 GTPγS Emax, % of S1P.
Description: as §2

Test [7] has as its target T5, hS1P3 (Homo sapiens, UniProt Q99500).
T5 construct: gene S1PR3; receptor stably expressed in CHO-K1 cells
As to the kind of experiment: […]GTPgammaS binding, CHO-K1 membranes. Type of test: biochemical.

Test [8] has as its target T4, hS1P5. Kind of test: […]GTPgammaS binding, CHO-K1 membranes. The class given is biochemical.
In test [9] the target is T6, hS1P2 (Homo sapiens, UniProt O95136).
T6 construct: gene S1PR2; receptor stably expressed in CHO-K1 cells
Kind of test: […]GTPgammaS binding, CHO-K1 membranes. Type of test: biochemical.

For test [10], the target named is T2, hS1P5 (ProLink-tagged, PathHunter). Kind of test: PathHunter beta-arrestin recruitment. The class given is cell-based.
In test [11] the target is T5, hS1P3. Kind of test: biochemical. Type of test: CHO-K1 membranes. Also on record: [35S]GTPgammaS binding to membranes, agonist concentration-response. The note with it: read-out: S1P3 GTPγS Emax, % of S1P.
Description: as §2

For test [12], the target named is T7, hS1P2 (ProLink-tagged, PathHunter) (Homo sapiens, UniProt O95136).
T7 construct: gene S1PR2; PathHunter HEK293 cells, ProLink-tagged; N-terminal HA tag in the internalization assay
Kind of test: PathHunter beta-arrestin recruitment. Type of test: cell-based.

Test [13] addresses T7, hS1P2 (ProLink-tagged, PathHunter). Kind of test: receptor internalization, fluorescence microscopy. The class given is cell-based. As to conditions: N-terminal HA tag, 37 °C.
Test [14] addresses T8, hS1P3 (ProLink-tagged, PathHunter) (Homo sapiens, UniProt Q99500).
T8 construct: gene S1PR3; ProLink-tagged receptor, PathHunter HEK293 cells
Kind of test: cell-based. As to conditions: HEK293, read-out: S1P3 β-Arrestin Emax, % of S1P. Also on record: species or system PathHunter HEK293; PathHunter beta-arrestin recruitment, agonist concentration-response.
Description: as §1

For test [15], the target named is T6, hS1P2. As to the kind of experiment: biochemical. The class given is CHO-K1 membranes. Also on record: [35S]GTPgammaS binding to membranes, agonist concentration-response. As to conditions: read-out: S1P2 GTPγS Emax, % of S1P.
Description: as §2

Structures are written as SMILES. Like-named read-outs stand apart in the source and are kept apart here.

T4 sequence (Q9H228 whole entry): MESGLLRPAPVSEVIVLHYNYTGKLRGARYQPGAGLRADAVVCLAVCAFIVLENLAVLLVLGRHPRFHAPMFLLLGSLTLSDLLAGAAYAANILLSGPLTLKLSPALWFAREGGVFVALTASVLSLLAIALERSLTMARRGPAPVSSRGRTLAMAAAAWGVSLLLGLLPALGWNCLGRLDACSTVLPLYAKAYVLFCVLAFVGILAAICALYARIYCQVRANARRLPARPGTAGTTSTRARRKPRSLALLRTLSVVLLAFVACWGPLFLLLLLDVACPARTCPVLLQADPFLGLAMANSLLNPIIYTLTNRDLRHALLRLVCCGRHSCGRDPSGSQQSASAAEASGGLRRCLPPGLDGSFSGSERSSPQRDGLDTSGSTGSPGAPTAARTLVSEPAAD
T2 sequence (Q9H228 whole entry): as above
T5 sequence (Q99500 whole entry): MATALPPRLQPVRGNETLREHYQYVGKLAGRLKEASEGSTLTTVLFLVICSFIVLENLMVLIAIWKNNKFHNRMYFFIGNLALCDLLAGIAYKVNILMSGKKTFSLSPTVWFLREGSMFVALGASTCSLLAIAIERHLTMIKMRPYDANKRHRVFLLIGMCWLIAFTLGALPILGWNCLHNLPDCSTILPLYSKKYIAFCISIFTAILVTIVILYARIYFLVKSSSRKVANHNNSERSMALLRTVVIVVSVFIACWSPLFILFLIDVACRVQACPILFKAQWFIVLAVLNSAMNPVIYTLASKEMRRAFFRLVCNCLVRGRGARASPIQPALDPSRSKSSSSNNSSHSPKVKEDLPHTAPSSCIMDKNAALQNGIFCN
T6 sequence (O95136 whole entry): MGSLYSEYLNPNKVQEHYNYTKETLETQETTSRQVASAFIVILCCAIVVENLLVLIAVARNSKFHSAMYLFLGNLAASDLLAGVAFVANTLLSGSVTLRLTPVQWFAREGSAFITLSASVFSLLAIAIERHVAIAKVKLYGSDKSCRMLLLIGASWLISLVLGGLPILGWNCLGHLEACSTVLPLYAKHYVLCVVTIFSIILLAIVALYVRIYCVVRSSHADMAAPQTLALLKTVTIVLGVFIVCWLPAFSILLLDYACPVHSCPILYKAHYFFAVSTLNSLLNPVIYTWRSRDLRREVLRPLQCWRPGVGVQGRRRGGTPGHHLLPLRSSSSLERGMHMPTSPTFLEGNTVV
T7 sequence (O95136 whole entry): as above
T8 sequence (Q99500 whole entry): as the sequence (Q99500 whole entry) above

Regarding `CCc1cc(/C(C)=N/OCc2ccc(C3CCCCC3)c(C(F)(F)F)c2)ccc1CN1CC(C(=O)O)C1` [Siponimod], the Emax in [1] is 92.6%; in test [2], 107%; at hS1P4 [5], 134%; on hS1P5 [6] it was 118%. In addition, the figures for the EC50 (in [3]; on hS1P4 [4]; at hS1P3 [7]) were greater than 500 nM, 510 nM and greater than 10000 nM, respectively.
Turning to `O=C(O)C[C@H]1CCc2c1[nH]c1ccc(OCc3ccc(C4CCCC4)c(C(F)(F)F)c3)cc21` [Etrasimod], the Emax in test [1] was found to be 53.9%; in test [2], 85.7%; at hS1P3 [11], 41.5%; on hS1P5 [6], 72%. Also, the EC50 is 63.4 nM at hS1P5 [8]; greater than 10000 nM at hS1P2 [9] (read-out: EC50); 141 nM in [3]; greater than 10000 nM on hS1P4 [4]; 63.5 nM in [10]; 6050 nM at hS1P3 [7]. Further, in test [12] (read-out: EC50), the EC50 was greater than 10000 nM.
Regarding `CC(C)Oc1ccc(-c2nc(-c3cccc4c3CC[C@@H]4NCCO)no2)cc1C#N` [Ozanimod], the concentration giving a half-maximal response (EC50) on hS1P5 [8] was 28.8 nM; in test [3], greater than 500 nM; on hS1P4 [4], greater than 10000 nM; in test [10] it was 12.3 nM; at hS1P3 [7], greater than 6000 nM. Also, the “receptor internalization, fluorescence microscopy” value in test [13] is “Fingolimod(P) and ozanimod induced robust S1P2 internalization in a dose‐dependent and saturable fashion”.
`CCCCCCCCc1ccc(CCC(N)(CO)COP(=O)(O)O)cc1` (stereo not shown) [Fingolimod(P)]: the Emax in test [1] was found to be 77.6%; in [14], 9.1%; in [2], 48.4%; at hS1P2 [15], 35.2%; at hS1P4 [5], 121%; at hS1P3 [11], 39.1%. Moreover, at hS1P5 [6], the Emax is 69.5%. Moreover, the EC50 result on hS1P2 [9] (agonist, 0.1% fatty acid-free BSA, room temperature, 10 mM MgCl2) is “fingolimod(P) was a weak agonist, in terms of both potency and efficacy”; in test [3], 6.9 nM; on hS1P4 [4] it was 6.1 nM; in test [12] (agonist, 0.1% fatty acid-free BSA, room temperature, 2 h) it was “fingolimod(P) was a weak agonist, in terms of both potency and efficacy”.
`CC(C)Oc1ccc(-c2nc(-c3cccc4c3CCC4=O)no2)cc1C#N` [Ozanimod(K)]: the Emax in test [1] turned out to be 89.1%; in [2], 115%; at hS1P5 [6] it was 105%. In addition, the concentration for a half-maximal effect (EC50) at hS1P5 [8] was 58.5 nM; in [3] it was greater than 500 nM; on hS1P4 [4], greater than 10000 nM; in test [10], 95.8 nM; on hS1P3 [7], greater than 10000 nM.
